Results from patent US20020031782A1, “Mycobacterium tuberculosis CYP51 high resolution structure, polypeptides and nucleic acids, and therapeutic and screening methods relating to same” (priority 1999, published 2002).
Where two headings read alike, the source gives them in different places.

Assays:
[1] = target: T1, MT P45014DM (Mycobacterium tuberculosis, UniProt P9WPP9); experiment: biochemical; type: binding; design: DNA segments encoding full length proteins preferably have a coding length on the order of about 1353 nucleotides; made in house; host or cells: E. coli HMS174, vector pet17b; conditions: for Kd: type I substrate-induced difference spectrum, 10 μM MT P45014DM, read-out: Ks value (binding constant), substrate
T1 sequence (P9WPP9 1-451): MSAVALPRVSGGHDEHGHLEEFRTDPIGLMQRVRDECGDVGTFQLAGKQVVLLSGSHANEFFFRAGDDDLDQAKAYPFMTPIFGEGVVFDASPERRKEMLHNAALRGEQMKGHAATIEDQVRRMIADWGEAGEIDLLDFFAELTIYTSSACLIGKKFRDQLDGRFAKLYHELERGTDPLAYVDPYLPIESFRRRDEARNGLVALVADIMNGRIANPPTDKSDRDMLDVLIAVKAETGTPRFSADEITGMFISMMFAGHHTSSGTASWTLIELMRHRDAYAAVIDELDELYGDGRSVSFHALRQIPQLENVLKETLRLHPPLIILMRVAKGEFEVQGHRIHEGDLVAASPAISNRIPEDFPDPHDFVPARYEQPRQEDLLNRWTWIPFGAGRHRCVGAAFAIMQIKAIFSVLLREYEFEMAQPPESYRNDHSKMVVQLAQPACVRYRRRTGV

[2] = target: T1, MT P45014DM; experiment: Reconstituted catalytic activity: sterol 14α-demethylation by MT P45014DM; type: biochemical; design: DNA segments encoding full length proteins preferably have a coding length on the order of about 1353 nucleotides; made in house; host or cells: E. coli HMS174, vector pet17b
[3] = target: maize microsomes; conditions: Salmon et al. 1992; read-out: binding constant estimated for maize microsomes; cited from earlier work
[4] = target: T1, MT P45014DM; experiment: biochemical; type: binding; design: DNA segments encoding full length proteins preferably have a coding length on the order of about 1353 nucleotides; made in house; host or cells: E. coli HMS174, vector pet17b
[5] = tested on: MT H37RA; experiment: Effect of azole inhibitors on growth of MT; type: cell-based, Mycobacterium tuberculosis
Description: The characterization of the CYP51 enzyme of the present invention in MT leads to the analysis of the function of this enzyme in the disease tuberculosis and of whether this enzyme represents a new drug target for the treatment of tuberculosis. Particularly, the effects of three azole inhibitors on the growth of MT H37RA, an alternated strain of MTH37R which is the pathogenic strain whose genomic sequence was determined by Cole et al., (1998) Nature […]:537-544 (bacterial strains provided by Dr. Dean Crick at Colorado State University) were examined.
As contemplated by applicants in accordance with the present invention, it was observed that ketoconazole has a profound effect on the growth of MT, stopping growth at about a 25 μM concentration. […] The targeting of ketoconazole to P45014DM in MT also leads to the identification of additional specific azole inhibitors which have far greater specificity for the MT CYP45014DM enzyme as compared to the human CYP45014DM enzyme. Such inhibitors therefore will have fewer side effects than less specific inhibitors. Thus, as described above, a method of screening for highly specific inhibitors of MT CYP45014DM in accordance with the screening methods described herein above comprises another aspect of the present invention.

[6] = target: T2, cholesterol side chain cleavage P450 (SCC) (Bos taurus, UniProt P00189); experiment: CO-based reduction of cholesterol side chain cleavage P450 by electron donor (control); type: biochemical, bovine; conditions: compared to 100% determined by sodium hydrosulfite
T2 sequence (P00189 40-520): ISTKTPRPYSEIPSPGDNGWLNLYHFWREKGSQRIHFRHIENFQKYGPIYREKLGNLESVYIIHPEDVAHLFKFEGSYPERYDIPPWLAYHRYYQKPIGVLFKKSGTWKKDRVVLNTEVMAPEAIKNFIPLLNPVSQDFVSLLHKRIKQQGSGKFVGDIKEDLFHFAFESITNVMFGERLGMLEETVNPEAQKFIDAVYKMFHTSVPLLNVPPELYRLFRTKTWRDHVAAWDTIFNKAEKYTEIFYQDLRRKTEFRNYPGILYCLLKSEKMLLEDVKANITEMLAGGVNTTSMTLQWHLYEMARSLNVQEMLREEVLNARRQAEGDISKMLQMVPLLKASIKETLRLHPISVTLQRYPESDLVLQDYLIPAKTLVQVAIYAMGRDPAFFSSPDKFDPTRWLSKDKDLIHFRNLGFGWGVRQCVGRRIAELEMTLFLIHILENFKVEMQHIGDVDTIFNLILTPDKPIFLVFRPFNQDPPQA

[7] = target: T1, MT P45014DM; conditions: compared to 100% determined by sodium hydrosulfite
[8] = target: T3, bovine 17α-hydroxylase P450 (bC17) (Bos taurus, UniProt P05185); experiment: CO-based reduction of 17α-hydroxylase P450 by electron donors (control); type: biochemical; conditions: compared to 100% determined by sodium hydrosulfite
T3 sequence (P05185 1-509): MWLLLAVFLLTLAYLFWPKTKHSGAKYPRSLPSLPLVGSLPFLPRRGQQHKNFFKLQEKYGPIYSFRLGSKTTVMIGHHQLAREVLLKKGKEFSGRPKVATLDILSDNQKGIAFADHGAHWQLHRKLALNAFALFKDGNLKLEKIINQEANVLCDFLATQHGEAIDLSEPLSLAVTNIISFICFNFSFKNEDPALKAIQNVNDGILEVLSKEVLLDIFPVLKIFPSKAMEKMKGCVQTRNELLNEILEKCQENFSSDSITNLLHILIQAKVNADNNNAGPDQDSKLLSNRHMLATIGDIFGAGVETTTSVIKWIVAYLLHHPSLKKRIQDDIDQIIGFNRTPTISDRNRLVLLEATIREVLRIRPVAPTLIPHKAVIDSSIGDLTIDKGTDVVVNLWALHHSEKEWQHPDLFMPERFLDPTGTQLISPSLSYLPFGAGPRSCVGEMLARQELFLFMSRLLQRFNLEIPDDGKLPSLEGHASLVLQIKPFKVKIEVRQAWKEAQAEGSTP

## C=C(CC[C@@H](C)[C@H]1CC[C@@]2(C)C3=C(CC[C@]12C)[C@@]1(C)CC[C@H](O)C(C)(C)[C@@H]1CC3)C(C)C [24-methylene-dihydrolanosterol]
[1]
  sterol binding to the enzyme (yes/no): did not bind

## CC(C)CCC[C@@H](C)[C@H]1CC[C@@]2(C)C3=C(CC[C@]12C)[C@@]1(C)CC[C@H](O)C(C)(C)[C@@H]1CC3 [DHL, 24,25-dihydrolanosterol]
[2]
  Total product recovered from the quenched reaction mixtures: 20%
[1]
  sterol binding to the enzyme (yes/no): binds
  Kd: ~1000 nM

## CC(C)=CCC[C@@H](C)[C@H]1CC[C@@]2(C)[C@@H]3CC[C@H]4C(C)(C)[C@@H](O)CC[C@@]45C[C@@]35CC[C@]12C [cycloartenol]
[1]
  sterol binding to the enzyme (yes/no): Neither parkeol, cycloartenol, nor zymosterol (FIG. 3A) were found to bind

## CC(=O)N1CCN(c2ccc(OCC3COC(Cn4ccnc4)(c4ccc(Cl)cc4Cl)O3)cc2)CC1 (stereo not shown) [ketoconazole]
[3]
  Kd: 10 µM
[2]
  inhibition of the 14α-demethylation of DHL: inhibit
[4]
  Kd: ~5 µM
[5]
  concentration stopping growth of MT: ~25 µM

## CC(C)=CCC[C@@H](C)[C@H]1CC[C@@]2(C)C3=C(CC[C@]12C)[C@@]1(C)CC[C@H](O)C(C)(C)[C@@H]1CC3 [lanosterol]
[2]
  Total product recovered from the quenched reaction mixtures: 1%
[1]
  sterol binding to the enzyme (yes/no): binds
  Kd: ~1000 nM

## C=C(CC[C@@H](C)[C@H]1CC[C@@]2(C)C3=C(CC[C@]12C)[C@@]1(C)CC[C@H](O)[C@@H](C)[C@@H]1CC3)C(C)C [obtusifoliol]
[2]
  Total product recovered from the quenched reaction mixtures: 98%
[1]
  sterol binding to the enzyme (yes/no): binds
  Kd: 350 ± 150 nM

## CC(C)=CCC[C@@H](C)[C@H]1CC[C@@]2(C)[C@@H]3CC[C@H]4C(C)(C)[C@@H](O)CC[C@]4(C)C3=CC[C@]12C [parkeol]
[1]
  sterol binding to the enzyme (yes/no): Neither parkeol, cycloartenol, nor zymosterol (FIG. 3A) were found to bind

## CC(C)=CCC[C@@H](C)[C@H]1CC[C@H]2C3=C(CC[C@]12C)[C@@]1(C)CC[C@H](O)C[C@@H]1CC3 [zymosterol, 4,4,14-tridesmethyl lanosterol]
[1]
  sterol binding to the enzyme (yes/no): Neither parkeol, cycloartenol, nor zymosterol (FIG. 3A) were found to bind

B1: Adx/Adr: bovine adrenodoxin/adrenodoxin reductase electron donor system (protein, UniProt P00257 59-186; P08165 33-492, looked up)
Adrenodoxin, mitochondrial: SSSEDKITVHFINRDGETLTTKGKIGDSLLDVVVQNNLDIDGFGACEGTLACSTCHLIFEQHIFEKLEAITDEENDMLDLAYGLTDRSRLGCQICLTKAMDNMTVRVPDAVSDARESIDMGMNSSKIE
NADPH:adrenodoxin …: STQEQTPQICVVGSGPAGFYTAQHLLKHHSRAHVDIYEKQLVPFGLVRFGVAPDHPEVKNVINTFTQTARSDRCAFYGNVEVGRDVTVQELQDAYHAVVLSYGAEDHQALDIPGEELPGVFSARAFVGWYNGLPENRELAPDLSCDTAVILGQGNVALDVARILLTPPDHLEKTDITEAALGALRQSRVKTVWIVGRRGPLQVAFTIKELREMIQLPGTRPMLDPADFLGLQDRIKEAARPRKRLMELLLRTATEKPGVEEAARRASASRAWGLRFFRSPQQVLPSPDGRRAAGIRLAVTRLEGIGEATRAVPTGDVEDLPCGLVLSSIGYKSRPIDPSVPFDPKLGVVPNMEGRVVDVPGLYCSGWVKRGPTGVITTTMTDSFLTGQILLQDLKAGHLPSGPRPGSAFIKALLDSRGVWPVSFSDWEKLDAEEVSRGQASGKPREKLLDPQEMLRLLGH
modifications: two-protein electron donor system
[6]
  reduction of SCC (reduced-CO spectrum): 80%
[7]
  reduction of MT P45014DM (reduced-CO spectrum): n.r.

B2: rat P450 reductase: rat microsomal NADPH cytochrome P450 reductase (protein, UniProt P00388 2-678, looked up)
NADPH--cytochrome P450 …: GDSHEDTSATMPEAVAEEVSLFSTTDMVLFSLIVGVLTYWFIFRKKKEEIPEFSKIQTTAPPVKESSFVEKMKKTGRNIIVFYGSQTGTAEEFANRLSKDAHRYGMRGMSADPEEYDLADLSSLPEIDKSLVVFCMATYGEGDPTDNAQDFYDWLQETDVDLTGVKFAVFGLGNKTYEHFNAMGKYVDQRLEQLGAQRIFELGLGDDDGNLEEDFITWREQFWPAVCEFFGVEATGEESSIRQYELVVHEDMDVAKVYTGEMGRLKSYENQKPPFDAKNPFLAAVTANRKLNQGTERHLMHLELDISDSKIRYESGDHVAVYPANDSALVNQIGEILGADLDVIMSLNNLDEESNKKHPFPCPTTYRTALTYYLDITNPPRTNVLYELAQYASEPSEQEHLHKMASSSGEGKELYLSWVVEARRHILAILQDYPSLRPPIDHLCELLPRLQARYYSIASSSKVHPNSVHICAVAVEYEAKSGRVNKGVATSWLRAKEPAGENGGRALVPMFVRKSQFRLPFKSTTPVIMVGPGTGIAPFMGFIQERAWLREQGKEVGETLLYYGCRRSDEDYLYREELARFHKDGALTQLNVAFSREQAHKVYVQHLLKRDREHLWKLIHEGGAHIYVCGDARNMAKDVQNTFYDIVAEFGPMEHTQAVDYVKKLMTKGRYSLDVWS
[7]
  reduction of MT P45014DM (reduced-CO spectrum): n.r.
[8]
  reduction of bC17 (reduced-CO spectrum): 73%

B3: Fld/Fdr: E. coli flavodoxin/flavodoxin reductase two-component electron donor system (protein, UniProt P61949 2-176; P28861 2-248, looked up)
Flavodoxin 1: AITGIFFGSDTGNTENIAKMIQKQLGKDVADVHDIAKSSKEDLEAYDILLLGIPTWYYGEAQCDWDDFFPTLEEIDFNGKLVALFGCGDQEDYAEYFCDALGTIRDIIEPRGATIVGHWPTAGYHFEASKGLADDDHFVGLAIDEDRQPELTAERVEKWVKQISEELHLDEILNA
Flavodoxin/ferredoxin--NADP …: ADWVTGKVTKVQNWTDALFSLTVHAPVLPFTAGQFTKLGLEIDGERVQRAYSYVNSPDNPDLEFYLVTVPDGKLSPRLAALKPGDEVQVVSEAAGFFVLDEVPHCETLWMLATGTAIGPYLSILQLGKDLDRFKNLVLVHAARYAADLSYLPLMQELEKRYEGKLRIQTVVSRETAAGSLTGRIPALIESGELESTIGLPMNKETSHVMLCGNPQMVRDTQQLLKETRQMTKHLRRRPGHMTAEHYW
[8]
  reduction of bC17 (reduced-CO spectrum): 77%
